Results on three compounds are retold here after patent US20110028566A1, “COMPOSITIONS AND PRODUCTS CONTAINING CYCLOALIPHATIC DIOL ANTIMICROBIAL AGENTS AND METHODS OF USING THE COMPOSITIONS AND PRODUCTS” (EASTMAN CHEMICAL COMPANY, priority 2009, published 2011).

Several values for one entry are separate records, joined by “and”; a condition that tells them apart may be missing. Equal entries are not always repeated.

For experiment [1], the system named is Aspergillus niger ATCC 16404. The experiment in a line: MIC determination and synergy testing (Kull synergy index), microplate. It counts as cell-based. As for the experimental part:
The test cultures are listed in Table 7 along with the incubation temperatures used for growth and minimum inhibitory concentration (MIC) testing. […] C. albicans was cultured in Sabouraud dextrose broth (SDB) for approximately 44-52 hours for preparation of inoculum. A. niger was cultured on Sabouraud dextrose agar (SDA) for 3-4 days until there was confluent growth and visible spore formation. Spores were harvested from the SDA plates by flooding the surface of the plate with 5-10 mL of phosphate-buffered saline (PBS) and gently spreading the liquid across the surface of the plate with a sterile T-shaped plastic spreader (Copan Diagnostics) until there was a well-mixed suspension of spores. The resulting spore suspension was collected using a serological pipette and stored at 2-8° C. until use.
Inoculum concentration was determined by dilution plating of the cultures or spore suspension. A serial dilution in PBS was made to 10^−8 for the bacterial cultures or 10^−5 for the fungal cultures. Fifty or 100 μL of the final dilution was spread on two Trypticase-soy agar (TSA) plates for bacteria or two SDA plates for fungi. After 24 to 48 hours plates were counted and the concentrations used in each experiment were calculated.
The A. niger spore suspensions were concentrated to a level of 1-2×10^8 spores/mL by centrifugation and resuspension in a portion of the resulting supernatant.
The antimicrobial agents tested for synergy along with the respective diluents and working stock solution concentrations are shown below. For determination of MIC ranges, individual antimicrobial agent stock solutions were added to sterile medium to yield the highest level test concentrations, and then serially diluted in the medium to prepare the range of test concentrations. For synergy testing individual test concentrations were prepared in sterile medium, and then blended to form the desired combinations.
MICs were determined using a high-throughput microplate method. Individual antimicrobial agents were added to TSB (pH 7.3) for bacterial testing or SDB (pH 5.6) for fungal testing at the highest concentration to be tested. A serial dilution series was prepared at a dilution ratio of 1:1.3333 such that a one log range was covered in nine dilutions. Two-hundred microliters of the diluted antimicrobial agents were dispensed into four wells each of a sterile, 96-well, flat-bottom microplate (Nalge Nunc International). Four additional wells of the highest concentration were dispensed to serve as uninoculated high-level controls. Eight additional wells containing only broth medium were also prepared, four to serve as negative controls and four as positive controls. Three wells of each antimicrobial agent dilution were inoculated with one of the test strains in Table 7. The final well of each antimicrobial agent dilution was left uninoculated to serve as a control (and means of compensating) for any absorbance/turbidity due to the test compounds.
Microplates were inoculated using the cultures or spore suspensions prepared as described above. The S. aureus cultures were used undiluted, while the E. coli and P. aeruginosa cultures were used either undiluted or after a 1:2 dilution in sterile TSB. The C. albicans cultures were used either undiluted or following a 2-fold concentration by centrifugation. One of two means of inoculation was used to deliver a final concentration of approximately 10^5 colony-forming units (CFU)/mL of C. albicans, 10^5 spores/mL of A. niger, or 10^6 CFU/mL of bacteria. The primary method used a stainless steel pin replicator (Nalge Nunc International) mounted on a hand-operated bench-top press (Schmidt Technology Corporation) fitted with a custom-built microplate holder to dispense one microliter of each inoculum from a “master” plate containing 50-100 μL of culture into the wells of the test plate. The pin replicator was sterilized before and between inoculations by immersing in ethanol and flaming. […]

The test system of experiment [2] is challenge organisms (fungi, Gram negative and Gram positive bacteria). The experiment in a line: Microbial challenge testing (Example 1), statements over all challenge organisms. The following applies: Table 6 experiments; glycol 0.5 to 2.5 wt %, BIT 0.05 and 0.2 wt %; from grade codes. It is filed as cell-based. As for the experimental part:
The microorganisms used in challenge tests are given in Table 3, designated as either ATCC (American Type Culture Collection) or wild type. These wild type organisms were problematic organisms previously isolated from chemical products. In the description for each organism, the bacteria are indicated as either GN (Gram negative) or GP (Gram positive). […] Sample substrates were prepared in triplicate, except those substrates containing PE or CG which were prepared in duplicate. […] After mixing, all challenged substrates were incubated at 35° C.±2° C. for 14 days and then at ambient room temperature. […] The turbidity of the sample was determined and, if needed, the sample was diluted with phosphate buffer (pH 7.2) to produce readable plate counts (see “Plate Counts” below). […] For diluted samples, plates producing 22 to 220 colonies per plate were counted and the count was multiplied by the dilution factor. […] Possible synergies were determined by treating the grade code as an estimate of the log of the microbial count (log of cfu/mL). […] Synergies were determined in the same way as described above for Table 5. […] As mentioned previously, synergies (as indicated in Tables 5 and 6) were determined by treating the grade codes as the logarithm (log) of the organism counts (cfu/ml), then adding log reductions for the individual components and comparing to the log reduction for the mixture. […]

Setting [3] is: A. niger, plate 154C, day 3, MP and CHDM.

As for `OCC1CCC(CO)CC1` (centres unmarked) [1,4-CHDM, 1,4-cyclohexanedimethanol], the “QA, MIC of CHDM alone” value in experiment [1] (A. niger, day 2 of incubation, plates 123C, 217C (CG series)) was 4.50 weight percent and 3.11 weight percent; in experiment [1] (A. niger, day 3 of incubation, plate 123C (CG series)), 3.11 weight percent. Moreover, the “QA/a: concentration of CHDM (MIC alone, or in the combination at an inhibitory concentration)” value in experiment [1] (setting [3]) is reported as 2.03 weight percent. In experiment [1] (setting [3]), the “SI (synergy index)” value is listed as 1.00. Besides, the QA/a in experiment [1] (CHDM alone (QA) or in combination with DMDM hydantoin (a), plate 196C, day 3) is 2.78; in experiment [1] (CHDM alone (QA) or in combination with IPBC (a), plate 259C, day 2), 5.00; in experiment [1] (CHDM alone (QA) or in combination with IPBC (a), plate 260C, day 3), 6.50; in experiment [1] (CHDM: MIC alone (QA) or conc. in combination with BA:DHA (a), plate 195C, day 2), 4.93; in experiment [1] (CHDM: MIC alone (QA) or conc. in combination with BA:DHA (a), plate 195C, day 3), 4.93; in experiment [1] (CHDM: MIC alone (QA) or conc. in combination with BA:DHA (a), plate 215C, day 2), 4.50. Also, the QA/a in experiment [1] (CHDM: MIC alone (QA) or conc. in combination with BA:DHA (a), plate 215C, day 3) turned out to be 4.50; in experiment [1] (CHDM: MIC alone (QA) or conc. in combination with CP (a), plate 194C, day 2) it was 3.70; in experiment [1] (CHDM: MIC alone (QA) or conc. in combination with CP (a), plate 194C, day 3) it was 2.78; in experiment [1] (CHDM: MIC alone (QA) or conc. in combination with MIT (a), plate 193C, day 2), 4.93; in experiment [1] (CHDM: MIC alone (QA) or conc. in combination with MIT (a), plate 193C, day 3) it was 2.78; in experiment [1] (CHDM: MIC alone (QA) or conc. in combination with MIT (a), plate 214C, day 2) it was 4.50. Besides, in experiment [1] (CHDM: MIC alone (QA) or conc. in combination with MIT (a), plate 214C, day 3), the QA/a turned out to be 6.00. Moreover, the “Synergism of cycloaliphatic diol with BIT (in words)” value in experiment [2] was “significant enhancement to the antimicrobial activity of BIT”.

For the compound `CCCCCCC(O)CO` (centres unmarked) [CG, 1,2-octanediol], the “Synergism of antimicrobial agent in combination with 1,4-CHDM for A. niger (in words; in the 12th table the cell names the organism and table number)” value in experiment [1] (Kull synergy index, synergistic when at least two results SI<1) is “A. niger (14)”.

As to `CC1(C)C(O)C(C)(C)C1O` (centres unmarked) [TMCD, 2,2,4,4-tetramethyl-1,3-cyclobutanediol], in experiment [2], the “Synergism of cycloaliphatic diol with BIT (in words)” value is “significant enhancement to the antimicrobial activity of BIT”.
